Results: the supplement of paper PMC6045584
± gives the standard deviation of the averaged measurements.

Compound: O=C(O)CC[C@H]1CC[C@@](c2cc(F)ccc2F)(S(=O)(=O)c2ccc(Cl)cc2)CC1 [MK0752]
Assay: surviving fraction relative to DMSO-only wells; higher = less growth inhibition
Settings: 0.5 nM; exposure time: 5 days
Outline: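 A line counted only if its three screens reached replicate Pearson r >0.7 and median Z' >0.3. Tumour cells in log phase were seeded at 250–500 per well in 384-well plates and, after 24 hours, kept in continuous contact with inhibitors at 0.5, 1, 5, 10, 50, 100, 500 and 1000 nM for five days. Surviving fraction was taken from CellTiter-Glo luminescence relative to the median of DMSO-only wells.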

Test System | surviving fraction
SCC47 HEADNECK | 1.13 ± 0.12
SCC90 HEADNECK | 1.19 ± 0.014
SG27 HEADNECK | 0.973 ± 0.05
SG28 HEADNECK | 1.15 ± 0.048
SG31 HEADNECK | 1.16 ± 0.18
SG32 HEADNECK | 1.11 ± 0.091
SG43 HEADNECK | 0.854 ± 0.3
SIHA CERVIX | 1.1 ± 0.046
SJSA1 BONE | 1 ± 0.03
SKBR3 BREAST | 0.854 ± 0.14
SNU475 LIVER | 1.06 ± 0.028
SUM44 BREAST | 0.998 ± 0.06
SUM149 BREAST | 0.927 ± 0.072
SUM149.B1*.S BREAST | 1.11 ± 0.05
SUM159 BREAST | 1.16 ± 0.12
SYO1 SYNOVIAL | 1 ± 0.024
T47D BREAST | 1.07 ± 0.025
U2OS BONE | 1.05 ± 0.06
VCAP PROSTATE | 1.04 ± 0.051
VP229 BREAST | 1.39 ± 0.087
YAMATO SYNOVIAL | 1.34 ± 0.1
ZR751 BREAST | 1.21 ± 0.034

Same assay, conditions: 1 nM; exposure time: 5 days

Test System | surviving fraction
SCC47 HEADNECK | 1.17 ± 0.034
SCC90 HEADNECK | 1.11 ± 0.15
SG27 HEADNECK | 0.891 ± 0.052
SG28 HEADNECK | 1.04 ± 0.062
SG31 HEADNECK | 1.07 ± 0.14
SG32 HEADNECK | 1.2 ± 0.039
SG43 HEADNECK | 0.901 ± 0.056
SIHA CERVIX | 1.15 ± 0.024
SJSA1 BONE | 1.09 ± 0.044
SKBR3 BREAST | 1.05 ± 0.18
SNU475 LIVER | 1 ± 0.036
SUM44 BREAST | 0.992 ± 0.035
SUM149 BREAST | 0.995 ± 0.09
SUM149.B1*.S BREAST | 1.12 ± 0.044
SUM159 BREAST | 1.15 ± 0.098
SYO1 SYNOVIAL | 0.981 ± 0.029
T47D BREAST | 1.07 ± 0.011
U2OS BONE | 1.06 ± 0.015
VCAP PROSTATE | 1.15 ± 0.15
VP229 BREAST | 1.15 ± 0.2
YAMATO SYNOVIAL | 1.39 ± 0.13
ZR751 BREAST | 1.15 ± 0.031

Same assay, conditions: 5 nM; exposure time: 5 days

Test System | surviving fraction
SCC47 HEADNECK | 1.2 ± 0.089
SCC90 HEADNECK | 1.24 ± 0.11
SG27 HEADNECK | 1.05 ± 0.082
SG28 HEADNECK | 1.05 ± 0.055
SG31 HEADNECK | 1.02 ± 0.2
SG32 HEADNECK | 1.26 ± 0.085
SG43 HEADNECK | 1.07 ± 0.43
SIHA CERVIX | 1.12 ± 0.044
SJSA1 BONE | 1.02 ± 0.089
SKBR3 BREAST | 1.02 ± 0.06
SNU475 LIVER | 0.97 ± 0.052
SUM44 BREAST | 0.983 ± 0.033
SUM149 BREAST | 1.03 ± 0.062
SUM149.B1*.S BREAST | 1.1 ± 0.041
SUM159 BREAST | 1.13 ± 0.075
SYO1 SYNOVIAL | 0.9374 ± 0.0056
T47D BREAST | 1.04 ± 0.022
U2OS BONE | 1.08 ± 0.019
VCAP PROSTATE | 1.11 ± 0.14
VP229 BREAST | 1.13 ± 0.092
YAMATO SYNOVIAL | 1.51 ± 0.082
ZR751 BREAST | 1.13 ± 0.13

Same assay, conditions: 10 nM; exposure time: 5 days

Test System | surviving fraction
SCC47 HEADNECK | 1.14 ± 0.029
SCC90 HEADNECK | 1.25 ± 0.12
SG27 HEADNECK | 0.988 ± 0.096
SG28 HEADNECK | 1.1 ± 0.027
SG31 HEADNECK | 0.991 ± 0.21
SG32 HEADNECK | 1.23 ± 0.11
SG43 HEADNECK | 0.862 ± 0.29
SIHA CERVIX | 1.15 ± 0.053
SJSA1 BONE | 1.09 ± 0.06
SKBR3 BREAST | 0.917 ± 0.086
SNU475 LIVER | 1.02 ± 0.011
SUM44 BREAST | 1.015 ± 0.0072
SUM149 BREAST | 1.05 ± 0.03
SUM149.B1*.S BREAST | 1.117 ± 0.004
SUM159 BREAST | 1.13 ± 0.085
SYO1 SYNOVIAL | 1 ± 0.042
T47D BREAST | 1.1 ± 0.015
U2OS BONE | 1.08 ± 0.034
VCAP PROSTATE | 1.19 ± 0.13
VP229 BREAST | 1.17 ± 0.07
YAMATO SYNOVIAL | 1.39 ± 0.058
ZR751 BREAST | 1.06 ± 0.089

Same assay, conditions: 50 nM; exposure time: 5 days

Test System | surviving fraction
SCC47 HEADNECK | 1.14 ± 0.064
SCC90 HEADNECK | 1.11 ± 0.064
SG27 HEADNECK | 1.01 ± 0.066
SG28 HEADNECK | 0.982 ± 0.075
SG31 HEADNECK | 0.881 ± 0.14
SG32 HEADNECK | 1.21 ± 0.23
SG43 HEADNECK | 1.03 ± 0.18
SIHA CERVIX | 1.15 ± 0.025
SJSA1 BONE | 1.08 ± 0.036
SKBR3 BREAST | 1.11 ± 0.092
SNU475 LIVER | 1.01 ± 0.019
SUM44 BREAST | 1.04 ± 0.051
SUM149 BREAST | 1.01 ± 0.08
SUM149.B1*.S BREAST | 1.18 ± 0.046
SUM159 BREAST | 1.06 ± 0.044
SYO1 SYNOVIAL | 1.04 ± 0.082
T47D BREAST | 1.11 ± 0.071
U2OS BONE | 1.1 ± 0.075
VCAP PROSTATE | 1.12 ± 0.065
VP229 BREAST | 1.1 ± 0.2
YAMATO SYNOVIAL | 1.49 ± 0.12
ZR751 BREAST | 1.09 ± 0.041

Same assay, conditions: 100 nM; exposure time: 5 days

Test System | surviving fraction
SCC47 HEADNECK | 1.18 ± 0.038
SCC90 HEADNECK | 1.13 ± 0.11
SG27 HEADNECK | 1.08 ± 0.047
SG28 HEADNECK | 1.05 ± 0.044
SG31 HEADNECK | 0.963 ± 0.099
SG32 HEADNECK | 1.18 ± 0.039
SG43 HEADNECK | 0.934 ± 0.16
SIHA CERVIX | 1.21 ± 0.085
SJSA1 BONE | 1.14 ± 0.02
SKBR3 BREAST | 1.08 ± 0.05
SNU475 LIVER | 1.03 ± 0.036
SUM44 BREAST | 1.09 ± 0.025
SUM149 BREAST | 0.98 ± 0.15
SUM149.B1*.S BREAST | 1.2 ± 0.029
SUM159 BREAST | 1.11 ± 0.022
SYO1 SYNOVIAL | 1.01 ± 0.02
T47D BREAST | 1.14 ± 0.018
U2OS BONE | 1.18 ± 0.031
VCAP PROSTATE | 1.22 ± 0.12
VP229 BREAST | 1.05 ± 0.14
YAMATO SYNOVIAL | 1.46 ± 0.11
ZR751 BREAST | 1.17 ± 0.083

Same assay, conditions: 500 nM; exposure time: 5 days

Test System | surviving fraction
SCC47 HEADNECK | 1.03 ± 0.067
SCC90 HEADNECK | 1.03 ± 0.093
SG27 HEADNECK | 0.933 ± 0.14
SG28 HEADNECK | 1.12 ± 0.13
SG31 HEADNECK | 1.04 ± 0.17
SG32 HEADNECK | 0.972 ± 0.14
SG43 HEADNECK | 1.61 ± 0.055
SIHA CERVIX | 1.16 ± 0.11
SJSA1 BONE | 1.03 ± 0.027
SKBR3 BREAST | 0.961 ± 0.11
SNU475 LIVER | 1.03 ± 0.037
SUM44 BREAST | 1.02 ± 0.031
SUM149 BREAST | 0.884 ± 0.014
SUM149.B1*.S BREAST | 1.03 ± 0.045
SUM159 BREAST | 1.13 ± 0.057
SYO1 SYNOVIAL | 0.98 ± 0.052
T47D BREAST | 1.09 ± 0.044
U2OS BONE | 1.02 ± 0.041
VCAP PROSTATE | 1.14 ± 0.076
VP229 BREAST | 1.01 ± 0.14
YAMATO SYNOVIAL | 1.49 ± 0.063
ZR751 BREAST | 1.14 ± 0.15

Same assay, conditions: 1000 nM; exposure time: 5 days

Test System | surviving fraction
SCC47 HEADNECK | 1.06 ± 0.058
SCC90 HEADNECK | 1.11 ± 0.091
SG27 HEADNECK | 0.923 ± 0.16
SG28 HEADNECK | 1.13 ± 0.11
SG31 HEADNECK | 1.11 ± 0.095
SG32 HEADNECK | 1.05 ± 0.086
SG43 HEADNECK | 1.08 ± 0.19
SIHA CERVIX | 1.14 ± 0.051
SJSA1 BONE | 1.07 ± 0.044
SKBR3 BREAST | 1.06 ± 0.11
SNU475 LIVER | 0.965 ± 0.036
SUM44 BREAST | 1.05 ± 0.03
SUM149 BREAST | 0.935 ± 0.068
SUM149.B1*.S BREAST | 1.06 ± 0.068
SUM159 BREAST | 1.11 ± 0.035
SYO1 SYNOVIAL | 0.971 ± 0.018
T47D BREAST | 1.11 ± 0.02
U2OS BONE | 1.04 ± 0.058
VCAP PROSTATE | 1.12 ± 0.15
VP229 BREAST | 0.901 ± 0.084
YAMATO SYNOVIAL | 1.41 ± 0.1
ZR751 BREAST | 1.25 ± 0.24
